Assay results: ChEMBL document CHEMBL1140553, “Efficient synthesis and in vitro cytostatic activity of 4-substituted triazolyl-nucleosides” (Bioorg Med Chem Lett, 2007)

Key:
Type in all cases: functional, cell-based
L1210 = experiment: Cytostatic activity against mouse L1210 cells
MOLT-4 = experiment: Cytostatic activity against human Molt4/C8 cells
CCRF-CEM = experiment: Cytostatic activity against human CEM cells

Structure (SMILES) | IC50 (L1210) | IC50 (MOLT-4) | IC50 (CCRF-CEM)
OCc1cn([C@@H]2O[C@H](CO)[C@@H](O)[C@H]2O)nn1 | > 200 µM | > 200 µM | > 200 µM
OC[C@H]1O[C@@H](n2cc(-c3ccccn3)nn2)[C@H](O)[C@@H]1O | 236 µM | 170 µM | 245 µM
COc1ccc(-c2cn([C@@H]3O[C@H](CO)[C@@H](O)[C@H]3O)nn2)cc1 | 152 µM | 36 µM | 73 µM
CCCCCCCCc1cn([C@@H]2O[C@H](CO)[C@@H](O)[C@H]2O)nn1 | 56 µM | 50 µM | 44 µM

Next, values leading:

IC50 (L1210) | IC50 (MOLT-4) | IC50 (CCRF-CEM) | Structure (SMILES)
> 200 µM | > 200 µM | > 200 µM | CC(O)c1cn([C@@H]2O[C@H](CO)[C@@H](O)[C@H]2O)nn1 (some centres undefined)
182 µM | 126 µM | 139 µM | OC[C@H]1O[C@@H](n2cc(-c3ccsc3)nn2)[C@H](O)[C@@H]1O
209 µM | 171 µM | 217 µM | OC[C@H]1O[C@@H](n2cc(-c3ccc(F)cc3)nn2)[C@H](O)[C@@H]1O
> 200 µM | > 200 µM | > 200 µM | CCCCCCc1cn([C@@H]2O[C@H](CO)[C@@H](O)[C@H]2O)nn1
